PubChem BioAssay AID1963829 (Molecular Pharmacology Branch, DTP, NCI, 2024)

The compounds below were run on 935938-334-R-J1-PDC complex spheroid viability (assay: Anticancer human tumor 935938-334-R-J1-PDC patient-derived small intestine adenocarcinoma cell line growth inhibition [POLQ]). Conditions: second compound 0.316 µM; first compound 0.1 µM; hits give low values.
Outline: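 Patient-derived tumour cells were co-cultured with HUVEC and mesenchymal stem cells as multicellular spheroids at 37 °C. They were treated with POLQ inhibitors (novobiocin, ART-558, RP6685) alone or combined with other agents. Top concentrations were at or near clinical Cmax (otherwise 10 microM; SN-38 at 1 microM), decreasing in half-log steps.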
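Further: spheroids exposed to drugs for seven days before viability read; 100% = DMSO vehicle control wells.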

SMILES	viability, T/C [%]
O=C(Nc1ccc(O)c(NS(=O)(=O)c2ccc(F)cc2)c1)c1ccc(-c2ccccc2)cc1 + Nc1ccc(C#CCN(C(=O)Cc2ncc(C(F)(F)F)cc2C(F)(F)F)c2ccc(F)cc2)nn1	92.9
C=CC(=O)N1CCN(c2nc(=O)n(-c3c(C)ccnc3C(C)C)c3nc(-c4c(O)cccc4F)c(F)cc23)C(C)C1 (stereo unspecified) + Nc1ccc(C#CCN(C(=O)Cc2ncc(C(F)(F)F)cc2C(F)(F)F)c2ccc(F)cc2)nn1	106

Same assay, conditions: second compound 0.316 µM; first compound 0.316 µM; hits give low values

SMILES	viability, T/C [%]
CCc1c2c(nc3ccc(O)cc13)-c1cc3c(c(=O)n1C2)COC(=O)[C@]3(O)CC + Nc1ccc(C#CCN(C(=O)Cc2ncc(C(F)(F)F)cc2C(F)(F)F)c2ccc(F)cc2)nn1	30.6
COc1ccc([C@@H](O)c2cc(-c3ncnc4cc(N5CCOCC5)ccc34)c(F)cc2Cl)nn1 + Nc1ccc(C#CCN(C(=O)Cc2ncc(C(F)(F)F)cc2C(F)(F)F)c2ccc(F)cc2)nn1	110
C=CCn1c(=O)c2cnc(Nc3ccc(N4CCN(C)CC4)cc3)nc2n1-c1cccc(C(C)(C)O)n1 + COC1C(OC(N)=O)C(O)C(Oc2ccc3c(O)c(NC(=O)c4ccc(O)c(CC=C(C)C)c4)c(=O)oc3c2C)OC1(C)C	78.1
O=C(Nc1ccc(O)c(NS(=O)(=O)c2ccc(F)cc2)c1)c1ccc(-c2ccccc2)cc1 + Nc1ccc(C#CCN(C(=O)Cc2ncc(C(F)(F)F)cc2C(F)(F)F)c2ccc(F)cc2)nn1	96.8
C=CC(=O)N1CCN(c2nc(=O)n(-c3c(C)ccnc3C(C)C)c3nc(-c4c(O)cccc4F)c(F)cc23)C(C)C1 (stereo unspecified) + Nc1ccc(C#CCN(C(=O)Cc2ncc(C(F)(F)F)cc2C(F)(F)F)c2ccc(F)cc2)nn1	87.3

Same assay, conditions: second compound 0.316 µM; first compound 1 µM; hits give low values

SMILES	viability, T/C [%]
CCc1c2c(nc3ccc(O)cc13)-c1cc3c(c(=O)n1C2)COC(=O)[C@]3(O)CC + Nc1ccc(C#CCN(C(=O)Cc2ncc(C(F)(F)F)cc2C(F)(F)F)c2ccc(F)cc2)nn1	28.9
COc1ccc([C@@H](O)c2cc(-c3ncnc4cc(N5CCOCC5)ccc34)c(F)cc2Cl)nn1 + Nc1ccc(C#CCN(C(=O)Cc2ncc(C(F)(F)F)cc2C(F)(F)F)c2ccc(F)cc2)nn1	84.9
C=CCn1c(=O)c2cnc(Nc3ccc(N4CCN(C)CC4)cc3)nc2n1-c1cccc(C(C)(C)O)n1 + COC1C(OC(N)=O)C(O)C(Oc2ccc3c(O)c(NC(=O)c4ccc(O)c(CC=C(C)C)c4)c(=O)oc3c2C)OC1(C)C	39.4
O=C(Nc1ccc(O)c(NS(=O)(=O)c2ccc(F)cc2)c1)c1ccc(-c2ccccc2)cc1 + Nc1ccc(C#CCN(C(=O)Cc2ncc(C(F)(F)F)cc2C(F)(F)F)c2ccc(F)cc2)nn1	110
C=CC(=O)N1CCN(c2nc(=O)n(-c3c(C)ccnc3C(C)C)c3nc(-c4c(O)cccc4F)c(F)cc23)C(C)C1 (stereo unspecified) + Nc1ccc(C#CCN(C(=O)Cc2ncc(C(F)(F)F)cc2C(F)(F)F)c2ccc(F)cc2)nn1	94.8

Same assay, conditions: second compound 0.316 µM; first compound 3.16 µM; hits give low values

SMILES	viability, T/C [%]
COc1ccc([C@@H](O)c2cc(-c3ncnc4cc(N5CCOCC5)ccc34)c(F)cc2Cl)nn1 + Nc1ccc(C#CCN(C(=O)Cc2ncc(C(F)(F)F)cc2C(F)(F)F)c2ccc(F)cc2)nn1	74.8
O=C(Nc1ccc(O)c(NS(=O)(=O)c2ccc(F)cc2)c1)c1ccc(-c2ccccc2)cc1 + Nc1ccc(C#CCN(C(=O)Cc2ncc(C(F)(F)F)cc2C(F)(F)F)c2ccc(F)cc2)nn1	112
C=CC(=O)N1CCN(c2nc(=O)n(-c3c(C)ccnc3C(C)C)c3nc(-c4c(O)cccc4F)c(F)cc23)C(C)C1 (stereo unspecified) + Nc1ccc(C#CCN(C(=O)Cc2ncc(C(F)(F)F)cc2C(F)(F)F)c2ccc(F)cc2)nn1	128

Same assay, conditions: second compound 0.316 µM; first compound 10 µM; hits give low values

SMILES	viability, T/C [%]
COc1ccc([C@@H](O)c2cc(-c3ncnc4cc(N5CCOCC5)ccc34)c(F)cc2Cl)nn1 + Nc1ccc(C#CCN(C(=O)Cc2ncc(C(F)(F)F)cc2C(F)(F)F)c2ccc(F)cc2)nn1	25
O=C(Nc1ccc(O)c(NS(=O)(=O)c2ccc(F)cc2)c1)c1ccc(-c2ccccc2)cc1 + Nc1ccc(C#CCN(C(=O)Cc2ncc(C(F)(F)F)cc2C(F)(F)F)c2ccc(F)cc2)nn1	67.2
C=CC(=O)N1CCN(c2nc(=O)n(-c3c(C)ccnc3C(C)C)c3nc(-c4c(O)cccc4F)c(F)cc23)C(C)C1 (stereo unspecified) + Nc1ccc(C#CCN(C(=O)Cc2ncc(C(F)(F)F)cc2C(F)(F)F)c2ccc(F)cc2)nn1	87.4

Same assay, conditions: second compound 1 µM; first compound 0.000316 µM; hits give low values

SMILES	viability, T/C [%]
Cn1ncnc1[C@H]1c2n[nH]c(=O)c3cc(F)cc(c23)N[C@@H]1c1ccc(F)cc1 + COC1C(OC(N)=O)C(O)C(Oc2ccc3c(O)c(NC(=O)c4ccc(O)c(CC=C(C)C)c4)c(=O)oc3c2C)OC1(C)C	84

Same assay, conditions: second compound 1 µM; first compound 0.001 µM; hits give low values

SMILES	viability, T/C [%]
Cn1ncnc1[C@H]1c2n[nH]c(=O)c3cc(F)cc(c23)N[C@@H]1c1ccc(F)cc1 + COC1C(OC(N)=O)C(O)C(Oc2ccc3c(O)c(NC(=O)c4ccc(O)c(CC=C(C)C)c4)c(=O)oc3c2C)OC1(C)C	105

Same assay, conditions: second compound 1 µM; first compound 0.00316 µM; hits give low values

SMILES	viability, T/C [%]
Cn1ncnc1[C@H]1c2n[nH]c(=O)c3cc(F)cc(c23)N[C@@H]1c1ccc(F)cc1 + COC1C(OC(N)=O)C(O)C(Oc2ccc3c(O)c(NC(=O)c4ccc(O)c(CC=C(C)C)c4)c(=O)oc3c2C)OC1(C)C	121
CCc1c2c(nc3ccc(O)cc13)-c1cc3c(c(=O)n1C2)COC(=O)[C@]3(O)CC + Nc1ccc(C#CCN(C(=O)Cc2ncc(C(F)(F)F)cc2C(F)(F)F)c2ccc(F)cc2)nn1	109
C=CCn1c(=O)c2cnc(Nc3ccc(N4CCN(C)CC4)cc3)nc2n1-c1cccc(C(C)(C)O)n1 + COC1C(OC(N)=O)C(O)C(Oc2ccc3c(O)c(NC(=O)c4ccc(O)c(CC=C(C)C)c4)c(=O)oc3c2C)OC1(C)C	93.1

Same assay, conditions: second compound 1 µM; first compound 0.01 µM; hits give low values

SMILES	viability, T/C [%]
Cn1ncnc1[C@H]1c2n[nH]c(=O)c3cc(F)cc(c23)N[C@@H]1c1ccc(F)cc1 + COC1C(OC(N)=O)C(O)C(Oc2ccc3c(O)c(NC(=O)c4ccc(O)c(CC=C(C)C)c4)c(=O)oc3c2C)OC1(C)C	94.8
CCc1c2c(nc3ccc(O)cc13)-c1cc3c(c(=O)n1C2)COC(=O)[C@]3(O)CC + Nc1ccc(C#CCN(C(=O)Cc2ncc(C(F)(F)F)cc2C(F)(F)F)c2ccc(F)cc2)nn1	81.8
C=CCn1c(=O)c2cnc(Nc3ccc(N4CCN(C)CC4)cc3)nc2n1-c1cccc(C(C)(C)O)n1 + COC1C(OC(N)=O)C(O)C(Oc2ccc3c(O)c(NC(=O)c4ccc(O)c(CC=C(C)C)c4)c(=O)oc3c2C)OC1(C)C	112

Same assay, conditions: second compound 1 µM; first compound 0.0316 µM; hits give low values

SMILES	viability, T/C [%]
Cn1ncnc1[C@H]1c2n[nH]c(=O)c3cc(F)cc(c23)N[C@@H]1c1ccc(F)cc1 + COC1C(OC(N)=O)C(O)C(Oc2ccc3c(O)c(NC(=O)c4ccc(O)c(CC=C(C)C)c4)c(=O)oc3c2C)OC1(C)C	90.8
CCc1c2c(nc3ccc(O)cc13)-c1cc3c(c(=O)n1C2)COC(=O)[C@]3(O)CC + Nc1ccc(C#CCN(C(=O)Cc2ncc(C(F)(F)F)cc2C(F)(F)F)c2ccc(F)cc2)nn1	36.1
COc1ccc([C@@H](O)c2cc(-c3ncnc4cc(N5CCOCC5)ccc34)c(F)cc2Cl)nn1 + Nc1ccc(C#CCN(C(=O)Cc2ncc(C(F)(F)F)cc2C(F)(F)F)c2ccc(F)cc2)nn1	118
C=CCn1c(=O)c2cnc(Nc3ccc(N4CCN(C)CC4)cc3)nc2n1-c1cccc(C(C)(C)O)n1 + COC1C(OC(N)=O)C(O)C(Oc2ccc3c(O)c(NC(=O)c4ccc(O)c(CC=C(C)C)c4)c(=O)oc3c2C)OC1(C)C	123
O=C(Nc1ccc(O)c(NS(=O)(=O)c2ccc(F)cc2)c1)c1ccc(-c2ccccc2)cc1 + Nc1ccc(C#CCN(C(=O)Cc2ncc(C(F)(F)F)cc2C(F)(F)F)c2ccc(F)cc2)nn1	83.1
